Reference: patent US20150210796A1, “Novel Compound, Novel Polymer, Colorant Including the Same, Positive Photosensitive Resin Composition Including the Same, and Color Filter” (Samsung SDI Co., Ltd., priority 2014, published 2015)

Assay: Solubility: dissolution state of compound in dilution solvent
Type: physicochemical
Settings: agitated at 25° C. and 100 rpm for 1 hour; for Amount of dissolved compound, diluted solvent (Anone): 0.5 g compound added to Anone (cyclohexanone); for Amount of dissolved compound, diluted solvent (PGMEA): 0.5 g compound added to PGMEA
Method: 0.5 g of each compound represented by Chemical Formulae 3-1 and 7-1 is respectively added to a dilution solvent (PGMEA, Anone, MeOH) to prepare each solution, the solution is agitated at 25° C. and 100 rpm for 1 hour with a mix rotor (MIXROTAR VMR-5, Luchi Deiseido Co., Ltd.) to examine dissolution state of the compound (the content of the dissolved compound), and the results are provided in the following Table 1. (Anone indicates cyclohexanone)

C=C(C)C(=O)OCCNS(=O)(=O)c1ccc(-c2c3ccc(=[N+](CC)CC)cc-3oc3cc(N(CC)CC)ccc23)c(S(=O)(=O)[O-])c1 [Chemical Formula 3-1]
Amount of dissolved compound, diluted solvent (Anone): equal to 0.1 wt %
Amount of dissolved compound, diluted solvent (PGMEA): to 0.1 wt %

C=C(C)C(=O)OCCN(CCCCCCCCCCCCCCCC)S(=O)(=O)c1ccc(-c2c3ccc(=[N+](CC)CC)cc-3oc3cc(N(CC)CC)ccc23)c(S(=O)(=O)[O-])c1 [Chemical Formula 7-1]
Amount of dissolved compound, diluted solvent (Anone): 3.0 wt %
Amount of dissolved compound, diluted solvent (MeOH) (0.5 g compound added to MeOH): equal to 10.0 wt %
Amount of dissolved compound, diluted solvent (PGMEA): 0.1 wt %
